Laboratory results as given in patent US12371454B2, “Cyclic peptide compound having Kras inhibitory action” (priority 2019, dated 2025).
Positions of bridges follow the written chain, without caps; N, C: chain ends. Non-standard residues stand in square brackets, D forms with d. Residues, ends and D or L forms follow the SMILES beside them. *: point of attachment. hPhe(3-Cl-4-CF3) = N[C@@H](CCc1ccc(C(F)(F)F)c(Cl)c1)C(=O)O; hPhe(3-F,4-CF3) = N[C@@H](CCc1ccc(C(F)(F)F)c(F)c1)C(=O)O; NMePhe(4-Cl) = CN[C@@H](Cc1ccc(Cl)cc1)C(=O)O; NMePhe(4-F) = CN[C@@H](Cc1ccc(F)cc1)C(=O)O; Abu(4,4,4-F3) = N[C@@H](CC(F)(F)F)C(=O)O; NMeGly(cPent) = CN[C@H](C(=O)O)C1CCCC1; Phe(3-I) = N[C@@H](Cc1cccc(I)c1)C(=O)O; NMeCha = CN[C@@H](CC1CCCCC1)C(=O)O; Azetidine(3,3-F2) = FC1(F)CN(*)C1; Ala(cPr) = N[C@@H](CC1CC1)C(=O)O; NMeAhp(2) = CCCCC[C@H](NC)C(=O)O; NMeChg = CN[C@H](C(=O)O)C1CCCCC1; N(CH2CH2)2CF2 = FC1(F)CCN(*)CC1; NMeD = CN[C@@H](CC(=O)O)C(=O)O; NMeL = CN[C@@H](CC(C)C)C(=O)O; Cba = N[C@@H](CC1CCC1)C(=O)O; NMeV = CN[C@H](C(=O)O)C(C)C; d(β3hA) = C[C@@H](N)CC(=O)O; N(iPr)Gly = CC(C)NCC(=O)O; NMeA = CN[C@@H](C)C(=O)O; NMeAib = CNC(C)(C)C(=O)O; Nle = CCCC[C@H](N)C(=O)O; Piperidide = C1CCN(*)CC1; Ac5c = NC1(C(=O)O)CCCC1; Aze = O=C(O)[C@@H]1CCN1; Aib = CC(C)(N)C(=O)O; βAla = NCCC(=O)O; Sar = CNCC(=O)O

Target: T1, Kras and SOS1 (biotin-tagged human Kras loaded with GDP, His-tagged human SOS1) (Homo sapiens, UniProt P01116, G12D)
T1 construct: made in house; host or cells: E. coli (stated for Kras only)
T1 sequence (P01116 1-188 isoform P01116-2 G12D): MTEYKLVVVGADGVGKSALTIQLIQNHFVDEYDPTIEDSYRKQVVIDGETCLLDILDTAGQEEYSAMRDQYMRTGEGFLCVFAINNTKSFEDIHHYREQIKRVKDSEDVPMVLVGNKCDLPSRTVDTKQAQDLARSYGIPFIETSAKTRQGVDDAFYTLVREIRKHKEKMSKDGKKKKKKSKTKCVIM
Assay: Protein-protein interaction inhibition between Kras and SOS1 (KrasGl2D-SOS PPI) using AlphaScreen
Type: binding
Conditions: AlphaScreen; biotin-tagged human Kras loaded with GDP, His-tagged human SOS1; read-out: KRAS G12D-SOS PPI IC50
In short: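 Binding between SOS1 and Kras is detected as bead-proximity luminescence: illuminate Ni-conjugated donors (680 nm), collect 520-620 nm emission from streptavidin-conjugated acceptors; Kras carries biotin and GDP loaded after purification, SOS1 carries a His tag.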

Row | SMILES | IC50
1 | CC[C@H](C)[C@@H]1NC(=O)[C@H](CC(C)C)N(C)C(=O)C[C@@H](C)NC(=O)[C@H](C(C)C)N(C)C(=O)C2(CCCC2)NC(=O)[C@@H]2CCCN2C(=O)[C@H](CCc2ccc(C(F)(F)F)c(Cl)c2)NC(=O)CN(C)C(=O)[C@H](CC2CCCCC2)N(C)C(=O)CN(C)C(=O)CN(C(C)C)C1=O [Compound 305] (cyclo([Ac5c][NMeV][d(β3hA)][NMeL]I[N(iPr)Gly][Sar][NMeCha][Sar][hPhe(3-Cl-4-CF3)]P)) | 170 nM
2 | CC(C)C[C@H]1C(=O)N[C@@H](CC2CCC2)C(=O)N(C)CC(=O)N(C)CC(=O)N(C)[C@@H](CC2CCCCC2)C(=O)N(C)CC(=O)N[C@@H](CCc2ccc(C(F)(F)F)c(Cl)c2)C(=O)N2CCC[C@H]2C(=O)NC2(CCCC2)C(=O)N(C)[C@@H](C(C)C)C(=O)N(C)[C@H](C(=O)N2CCCCC2)CC(=O)N1C [Compound 451] ([NMeL][Cba][Sar][Sar][NMeCha][Sar][hPhe(3-Cl-4-CF3)]P[Ac5c][NMeV][NMeD]-Piperidide; lactam N-11) | 10 nM
3 | CC[C@H](C)[C@@H]1NC(=O)[C@H](CC(C)C)N(C)C(=O)C[C@@H](C(=O)N2CCCCC2)N(C)C(=O)[C@H](C(C)C)N(C)C(=O)C(C)(C)NC(=O)[C@H](CC(=O)N2CCC(F)(F)CC2)N(C)C(=O)[C@H](CCc2ccc(C(F)(F)F)c(Cl)c2)NC(=O)CN(C)C(=O)[C@H](CC2CCCCC2)N(C)C(=O)CN(C)C(=O)CN(C)C1=O [Compound 463] ([NMeL]I[Sar][Sar][NMeCha][Sar][hPhe(3-Cl-4-CF3)][NMeD](N(CH2CH2)2CF2)[Aib][NMeV][NMeD]-Piperidide; lactam N-11) | 4.4 nM
4 | CC[C@H](C)[C@@H]1NC(=O)[C@H](CC(C)C)N(C)C(=O)C[C@@H](C)NC(=O)[C@H](CC(C)C)N(C)C(=O)C2(CCCC2)NC(=O)[C@@H]2CCCN2C(=O)[C@H](CCc2ccc(C(F)(F)F)c(F)c2)NC(=O)CN(C)C(=O)[C@H](CC2CCCCC2)N(C)C(=O)CN(C)C(=O)CN(C)C1=O [Compound 402] (cyclo([Ac5c][NMeL][d(β3hA)][NMeL]I[Sar][Sar][NMeCha][Sar][hPhe(3-F,4-CF3)]P)) | 26 nM
5 | CC[C@H](C)[C@@H]1NC(=O)[C@H](CC(C)C)N(C)C(=O)C[C@@H](C(=O)N(C)C)N(C)C(=O)[C@H](C2CCCC2)N(C)C(=O)[C@H](CC(F)(F)F)NC(=O)[C@H](CC(=O)N2CC(F)(F)C2)N(C)C(=O)[C@H](CCc2ccc(C(F)(F)F)c(Cl)c2)NC(=O)CN(C)C(=O)[C@H](CC2CCCCC2)N(C)C(=O)[C@@H]2CCN2C(=O)[C@H](C)N(C)C1=O [Compound 222] ([NMeL]I[NMeA][Aze][NMeCha][Sar][hPhe(3-Cl-4-CF3)][NMeD](Azetidine(3,3-F2))[Abu(4,4,4-F3)][NMeGly(cPent)][NMeD]-NMe2; lactam N-11) | 20 nM
6 | CC[C@H](C)[C@@H]1NC(=O)CCNC(=O)[C@H](Cc2ccc(F)cc2)N(C)C(=O)[C@H](C2CCCCC2)N(C)C(=O)C2(CCCC2)NC(=O)[C@@H]2CCCN2C(=O)[C@H](CCc2ccc(C(F)(F)F)c(Cl)c2)NC(=O)CN(C)C(=O)[C@H](CC2CCCCC2)N(C)C(=O)CN(C)C(=O)CN(C)C1=O [Compound 528] (cyclo([Ac5c][NMeChg][NMePhe(4-F)][βAla]I[Sar][Sar][NMeCha][Sar][hPhe(3-Cl-4-CF3)]P)) | 20 nM
7 | CCCCC[C@H]1C(=O)N(C)[C@H](C(=O)N2CCCCC2)CC(=O)N(C)[C@@H](CC(C)C)C(=O)N[C@@H]([C@@H](C)CC)C(=O)N(C)CC(=O)N(C)CC(=O)N(C)[C@@H](CC2CCCCC2)C(=O)N(C)CC(=O)N[C@@H](CCc2ccc(C(F)(F)F)c(Cl)c2)C(=O)N2CCC[C@H]2C(=O)NC2(CCCC2)C(=O)N1C [Compound 1719] ([NMeL]I[Sar][Sar][NMeCha][Sar][hPhe(3-Cl-4-CF3)]P[Ac5c][NMeAhp(2)][NMeD]-Piperidide; lactam N-11) | 18 nM
8 | CC(C)C[C@H]1C(=O)N[C@@H](CC2CC2)C(=O)N(C)CC(=O)N(C)CC(=O)N(C)[C@@H](CC2CCCCC2)C(=O)N(C)CC(=O)N[C@@H](CCc2ccc(C(F)(F)F)c(Cl)c2)C(=O)N2CCC[C@H]2C(=O)NC2(CCCC2)C(=O)N(C)[C@@H](C(C)C)C(=O)N(C)[C@H](C(=O)N2CCCCC2)CC(=O)N1C [Compound 421] ([NMeL][Ala(cPr)][Sar][Sar][NMeCha][Sar][hPhe(3-Cl-4-CF3)]P[Ac5c][NMeV][NMeD]-Piperidide; lactam N-11) | 10 nM
9 | CCCC[C@@H]1NC(=O)C(C)(C)N(C)C(=O)[C@H](CCCC)NC(=O)[C@H](Cc2cccc(I)c2)NC(=O)CN(C)C(=O)[C@H](Cc2ccc(Cl)cc2)N(C)C(=O)CN(C)C(=O)CN(C)C(=O)[C@H]([C@@H](C)CC)NC(=O)[C@H](CC(C)C)N(C)C(=O)C[C@@H](C(=O)N2CCCCC2)N(C)C1=O [Compound 765] ([NMeL]I[Sar][Sar][NMePhe(4-Cl)][Sar][Phe(3-I)][Nle][NMeAib][Nle][NMeD]-Piperidide; lactam N-11) | 50 nM
